Measured values: publication PMC9495681, “Examining Topoisomers of a Snake-Venom-Derived Peptide for Improved Antimicrobial and Antitumoral Properties” (Biomedicines, 2022)
Values after ≈ are worked out from the molar mass of the structure shown. Square brackets hold non-standard residues; d marks the D form. Peptide text beside a SMILES is read from it.

Experiments:
[1] = test system: A. baumannii (ATCC 15308); assay: Minimal inhibitory concentration (MIC), broth microdilution; format: cell-based; details: Mueller Hinton Broth, 5 × 10^5 CFU/mL, 0.04% BSA and 0.002% acetic acid, 20–22 h at 37 °C, duplicate
Procedure: (§1) Assays were performed on three Gram-negative bacteria: E. coli (BW25113, Coli Genetic Stock Center), A. baumannii (ATCC 15308, CECT, Valencia, Spain), and Pseudomonas sp. (ATCC15915, CECT). The minimal inhibitory concentration (MIC) of each peptide was determined as described by Wiegand et al.. Peptide stocks in water were added to polypropylene 96-well plates (Greiner, Frickenhausen, Germany) and serially diluted from 100 to 0.2 μM. Fresh bacteria were incubated at 37 °C in Mueller Hinton Broth (MHB, Condalab, Torrejón de Ardoz, Spain) up to exponential growth and diluted to a final inoculum of 5 × 10^5 CFU/mL. BSA and acetic acid at 0.04% (w/v) and 0.002% (v/v) final concentration, respectively, were added to avoid peptide self-aggregation. Plates were incubated for 20–22 h at 37 °C. Each peptide was tested in duplicate. MIC values were the lowest peptide concentration where bacterial growth was not detected.

[2] = test system: Pseudomonas sp. (ATCC15915); assay: as above; format: cell-based; details: Mueller Hinton Broth, 5 × 10^5 CFU/mL, 0.04% BSA and 0.002% acetic acid, 20–22 h at 37 °C, duplicate
Procedure: as §1

E. coli (BW25113) = assay: as above; format: cell-based; details: Mueller Hinton Broth, 5 × 10^5 CFU/mL, 0.04% BSA and 0.002% acetic acid, 20–22 h at 37 °C, duplicate
Procedure: as §1

1BR3G human fibroblasts = assay: Peptide cytotoxicity (Cell Titer Blue viability); format: cell-based; details: 24 h treatment, medium with 2% FBS, Cell Titer Blue fluorescence, triplicate
From the text: Human HeLa S3 (cervix epithelial carcinoma), leukemia Jurkat E6.1 (T-cell lineage), U937 (histiocytic lymphoma), THP-1 (acute monocytic leukemia), and 1BR3G human fibroblasts were obtained from the Cell Lines Repository of the Institut Municipal d’Investigació Medica (Barcelona, Spain). BxPC3 (pancreas adenocarcinoma), A549 (lung carcinoma), SH-Sy5Y (neuroblastoma), Panc1 (epithelioid carcinoma), 786-O (renal cell adenocarcinoma), and HT29 (colorectal adenocarcinoma) were obtained from the Integrative Biomedical Materials and Nanomedicine lab at UPF (Barcelona, Spain). HeLa S3, Jurkat E6.1, U937, THP-1, Panc1, and 786-O were cultured in Roswell Park Memorial Institute medium (RPMI) supplemented with 10% fetal bovine serum (FBS) and 1% penicillin/streptomycin solution and maintained at 37 °C in a humidified atmosphere with 5% of CO2. 1BR3G, BxPC3, A549, and HT29 were cultured in Dulbecco’s Modified Eagle’s Medium (DMEM) supplemented with 10% FBS and 1% penicillin/streptomycin solution and maintained at 37 °C in a humidified atmosphere with 5% of CO2. SH-Sy5Y was cultured in DMEM supplemented with 15% FBS and 1% penicillin/streptomycin and maintained at 37 °C in a humidified atmosphere with 5% of CO2. Cultures were maintained at 10^5–10^6 cell/mL densities. For 1BR3G human fibroblasts, BxPC3, A549, SH-Sy5Y, Panc1, 786-O, and HT29 were split every time they reached 80–90% of confluence after harvesting with PBS and trypsin.
About 60,000 cells were added to different microfuge tubes containing 2-fold serial dilution of the peptide, with a final concentration in the range between 0.1–100 μM in RPMI containing 2% of FBS. After 30 min incubation at 37 °C and 5% of CO2, […] of medium containing approximately 10,000 treated cells were transferred to a 96-well plate. Then, 15 μL of Cell Titer Blue dye (Promega, Madison, WI, USA) was added, and plates were reincubated for 24 h. Fluorescence was read at 4 and 24 h after dye addition in a Synergy HTX (BioTek, Winooski, VT, USA) reader, with λexc = 560 nm and λem = 620 nm. In the case of adherent cultures, 5000 cells/well were seeded in 96-well plates. After 24 h incubation at 37 °C and 5% of CO2, the medium was removed, and a new medium with 2% of FBS containing the various 2-fold dilution of the peptides was added. After a further 30 min, 15 μL of Cell Titer Blue dye was added to each well, and the measurement was done as above. Relative viability was calculated relative to a cell with only 2% FBS in the corresponding medium as a control (100% viability). All assays were conducted in triplicate.

Serum stability = format: in vitro ADME; details: 0.5 mL each of human serum (Sigma-Aldrich) and peptide (1 mM in water), 37 °C with stirring, trichloroacetic acid treatment, HPLC / LC-MS; for remaining at 24 h, 0.5 mM: 24 h (1440 min), read-out: Peptide remaining in human serum after 24 h
Procedure: Briefly, 0.5 mL each of human serum (Sigma-Aldrich, St. Louis, MO, USA) and peptide (1 mM in water) were mixed and incubated for 24 h at 37 °C with stirring. Aliquots (0.1 mL) were taken at 0, 1, 5, 10, 30, 120, 360 and 1440 min and treated with 20 μL of trichloroacetic acid (15% (v/v) in water). The suspension was centrifuged for 30 min at 4 °C and 13,000 rpm, and the supernatant was analyzed by HPLC as described above.

| SMILES | MIC A. baumannii [1] | MIC Pseudomonas sp. [2] | MIC E. coli (E. coli (BW25113)) | IC50 (cell viability) human fibroblast 1BR3G (1BR3G human fibroblasts) | remaining at 24 h, 0.5 mM (Serum stability) | half-life at 0.5 mM (Serum stability; aliquots 0–1440 min, read-out: t1/2 in human serum) |
| --- | --- | --- | --- | --- | --- | --- |
| CC[C@@H](C)[C@@H](NC(=O)[C@@H](CCCCN)NC(=O)[C@@H](CCCCN)NC(=O)[C@@H](CC(C)C)NC(=O)[C@@H](CCCNC(=N)N)NC(=O)[C@@H](CCCCN)NC(=O)[C@@H](CCCCN)NC(=O)[C@H](NC(=O)[C@@H](CO)NC(=O)[C@@H](CCCCN)NC(=O)[C@@H](CCCCN)NC(=O)[C@H](NC(=O)[C@@H](CCCCN)NC(=O)[C@@H](CCCCN)NC(=O)[C@@H](Cc1ccccc1)NC(=O)[C@@H](Cc1ccccc1)NC(=O)[C@@H](CCCCN)NC(=O)[C@@H](CCCCN)NC(=O)[C@@H](Cc1ccccc1)NC(=O)[C@@H](CCCNC(=N)N)NC(=O)[C@H](N)CCCCN)C(C)C)C(C)C)C(=O)N[C@H](Cc1ccccc1)C(=O)N[C@H](CCCCN)C(=O)N[C@H](CCCCN)C(=O)N1CCC[C@@H]1C(=O)N[C@H](CCSC)C(=O)N[C@@H](C(=O)N[C@@H](C(=O)NCC(=O)N[C@@H](C(=O)N[C@@H](C(=O)N[C@@H](C(=O)N1CCC[C@@H]1C(=O)N[C@H](Cc1ccccc1)C(N)=O)[C@H](C)CC)[C@H](C)O)C(C)C)[C@H](C)CC)C(C)C [Ctn enantio] (H-[dK][dR][dF][dK][dK][dF][dF][dK][dK][dV][dK][dK][dS][dV][dK][dK][dR][dL][dK][dK][dI][dF][dK][dK][dP][dM][dV][dI]G[dV][dT][dI][dP][dF]-NH2) | 1.56 µM (≈ 6.48 µg/mL) | 0.39 µM (≈ 1.62 µg/mL) | 0.39 µM (≈ 1.62 µg/mL) | 2.7 µM | 30% | – |
| CC[C@H](C)[C@H](NC(=O)CNC(=O)[C@@H](NC(=O)[C@@H](NC(=O)[C@@H](NC(=O)[C@@H]1CCCN1C(=O)[C@@H](N)Cc1ccccc1)[C@@H](C)CC)[C@@H](C)O)C(C)C)C(=O)N[C@H](C(=O)N[C@@H](CCSC)C(=O)N1CCC[C@H]1C(=O)N[C@@H](CCCCN)C(=O)N[C@@H](CCCCN)C(=O)N[C@@H](Cc1ccccc1)C(=O)N[C@H](C(=O)N[C@@H](CCCCN)C(=O)N[C@@H](CCCCN)C(=O)N[C@@H](CC(C)C)C(=O)N[C@@H](CCCNC(=N)N)C(=O)N[C@@H](CCCCN)C(=O)N[C@@H](CCCCN)C(=O)N[C@H](C(=O)N[C@@H](CO)C(=O)N[C@@H](CCCCN)C(=O)N[C@@H](CCCCN)C(=O)N[C@H](C(=O)N[C@@H](CCCCN)C(=O)N[C@@H](CCCCN)C(=O)N[C@@H](Cc1ccccc1)C(=O)N[C@@H](Cc1ccccc1)C(=O)N[C@@H](CCCCN)C(=O)N[C@@H](CCCCN)C(=O)N[C@@H](Cc1ccccc1)C(=O)N[C@@H](CCCNC(=N)N)C(=O)N[C@@H](CCCCN)C(N)=O)C(C)C)C(C)C)[C@@H](C)CC)C(C)C [Ctn retro] (H-FPITVGIVMPKKFIKKLRKKVSKKVKKFFKKFRK-NH2) | 1.56 µM (≈ 6.48 µg/mL) | 1.56 µM (≈ 6.48 µg/mL) | 0.78 µM (≈ 3.24 µg/mL) | – | – | – |
| CC[C@@H](C)[C@@H](NC(=O)CNC(=O)[C@H](NC(=O)[C@H](NC(=O)[C@H](NC(=O)[C@H]1CCCN1C(=O)[C@H](N)Cc1ccccc1)[C@H](C)CC)[C@H](C)O)C(C)C)C(=O)N[C@@H](C(=O)N[C@H](CCSC)C(=O)N1CCC[C@@H]1C(=O)N[C@H](CCCCN)C(=O)N[C@H](CCCCN)C(=O)N[C@H](Cc1ccccc1)C(=O)N[C@@H](C(=O)N[C@H](CCCCN)C(=O)N[C@H](CCCCN)C(=O)N[C@H](CC(C)C)C(=O)N[C@H](CCCNC(=N)N)C(=O)N[C@H](CCCCN)C(=O)N[C@H](CCCCN)C(=O)N[C@@H](C(=O)N[C@H](CO)C(=O)N[C@H](CCCCN)C(=O)N[C@H](CCCCN)C(=O)N[C@@H](C(=O)N[C@H](CCCCN)C(=O)N[C@H](CCCCN)C(=O)N[C@H](Cc1ccccc1)C(=O)N[C@H](Cc1ccccc1)C(=O)N[C@H](CCCCN)C(=O)N[C@H](CCCCN)C(=O)N[C@H](Cc1ccccc1)C(=O)N[C@H](CCCNC(=N)N)C(=O)N[C@H](CCCCN)C(N)=O)C(C)C)C(C)C)[C@H](C)CC)C(C)C [Ctn retroenantio] (H-[dF][dP][dI][dT][dV]G[dI][dV][dM][dP][dK][dK][dF][dI][dK][dK][dL][dR][dK][dK][dV][dS][dK][dK][dV][dK][dK][dF][dF][dK][dK][dF][dR][dK]-NH2) | 1.56 µM (≈ 6.48 µg/mL) | 0.78 µM (≈ 3.24 µg/mL) | 0.78 µM (≈ 3.24 µg/mL) | 4.3 µM | 40% | – |
| CC[C@@H](C)[C@@H](NC(=O)[C@@H](CCCCN)NC(=O)[C@@H](CCCCN)NC(=O)[C@@H](CC(C)C)NC(=O)[C@@H](CCCNC(=N)N)NC(=O)[C@@H](CCCCN)NC(=O)[C@H](N)CCCCN)C(=O)N[C@H](Cc1ccccc1)C(=O)N[C@H](CCCCN)C(=O)N[C@H](CCCCN)C(=O)N1CCC[C@@H]1C(=O)N[C@H](CCSC)C(=O)N[C@@H](C(=O)N[C@@H](C(=O)NCC(=O)N[C@@H](C(=O)N[C@@H](C(=O)N[C@@H](C(=O)N1CCC[C@@H]1C(=O)N[C@H](Cc1ccccc1)C(N)=O)[C@H](C)CC)[C@H](C)O)C(C)C)[C@H](C)CC)C(C)C [Ctn[15-34] enantio] (H-[dK][dK][dR][dL][dK][dK][dI][dF][dK][dK][dP][dM][dV][dI]G[dV][dT][dI][dP][dF]-NH2) | 0.39 µM (≈ 0.925 µg/mL) | 0.1 µM (≈ 0.237 µg/mL) | 0.16 µM (≈ 0.379 µg/mL) | – | – | – |
| CC[C@H](C)[C@H](NC(=O)CNC(=O)[C@@H](NC(=O)[C@@H](NC(=O)[C@@H](NC(=O)[C@@H]1CCCN1C(=O)[C@@H](N)Cc1ccccc1)[C@@H](C)CC)[C@@H](C)O)C(C)C)C(=O)N[C@H](C(=O)N[C@@H](CCSC)C(=O)N1CCC[C@H]1C(=O)N[C@@H](CCCCN)C(=O)N[C@@H](CCCCN)C(=O)N[C@@H](Cc1ccccc1)C(=O)N[C@H](C(=O)N[C@@H](CCCCN)C(=O)N[C@@H](CCCCN)C(=O)N[C@@H](CC(C)C)C(=O)N[C@@H](CCCNC(=N)N)C(=O)N[C@@H](CCCCN)C(=O)N[C@@H](CCCCN)C(N)=O)[C@@H](C)CC)C(C)C [Ctn[15-34] retro] (H-FPITVGIVMPKKFIKKLRKK-NH2) | 0.78 µM (≈ 1.85 µg/mL) | <0.05 µM | 0.16 µM (≈ 0.379 µg/mL) | ≈ 15.84 μM | – | – |
| CC[C@@H](C)[C@@H](NC(=O)CNC(=O)[C@H](NC(=O)[C@H](NC(=O)[C@H](NC(=O)[C@H]1CCCN1C(=O)[C@H](N)Cc1ccccc1)[C@H](C)CC)[C@H](C)O)C(C)C)C(=O)N[C@@H](C(=O)N[C@H](CCSC)C(=O)N1CCC[C@@H]1C(=O)N[C@H](CCCCN)C(=O)N[C@H](CCCCN)C(=O)N[C@H](Cc1ccccc1)C(=O)N[C@@H](C(=O)N[C@H](CCCCN)C(=O)N[C@H](CCCCN)C(=O)N[C@H](CC(C)C)C(=O)N[C@H](CCCNC(=N)N)C(=O)N[C@H](CCCCN)C(=O)N[C@H](CCCCN)C(N)=O)[C@H](C)CC)C(C)C [Ctn[15-34] retroenantio] (H-[dF][dP][dI][dT][dV]G[dI][dV][dM][dP][dK][dK][dF][dI][dK][dK][dL][dR][dK][dK]-NH2) | 0.39 µM (≈ 0.925 µg/mL) | 0.1 µM (≈ 0.237 µg/mL) | 0.16 µM (≈ 0.379 µg/mL) | – | – | 15.3 h |
